Data from patent US8623907B2, “Herbicides” (Syngenta Participations, AG, priority 2008, dated 2014).

Experiments:
Type in all cases: in vivo
[1] = tested on: Alopecurus myosuroides (ALOMY); assay: Test Example 1, pre-emergence herbicidal activity; settings: Rate 500 g/ha; evaluated 20 days later; 100=total damage to plant, 0=no damage to plant
Description: (§1) Monocotyledonous and dicotyledonous test plants were sown in standard soil in pots. After cultivation for one day (pre-emergence) or after 10 days cultivation (post-emergence) under controlled conditions in a glasshouse, the plants were sprayed with an aqueous spray solution derived from the formulation of the technical active ingredient in 0.6 ml acetone and 45 ml formulation solution containing 10.6% Emulsogen EL (Registry number 61791-12-6), 42.2% N-methylpyrrolidone, 42.2% dipropylene glycol monomethyl ether (Registry number 34590-94-8) and 0.2% X-77 (Registry number 11097-66-8). The test plants were then grown in a greenhouse under optimum conditions until, 15 days later for post-emergence and 20 days for pre-emergence, the test was evaluated (100=total damage to plant; 0=no damage to plant). Alopecurus myosuroides (ALOMY), Avena fatua (AVEFA), Lolium perenne (LOLPE), Setaria faberi (SETFA), Digitaria sanguinalis (DIGSA), Echinochloa crus-galli (ECHCG)

Avena fatua (AVEFA) [2] = assay: Test Example 1, pre-emergence herbicidal activity; settings: Rate 500 g/ha; evaluated 20 days later; 100=total damage to plant, 0=no damage to plant
Description: as §1

[3] = tested on: Digitaria sanguinalis (DIGSA); assay: Test Example 1, pre-emergence herbicidal activity; settings: Rate 500 g/ha; evaluated 20 days later; 100=total damage to plant, 0=no damage to plant
Description: as §1

[4] = tested on: Echinochloa crus-galli (ECHCG); assay: Test Example 1, pre-emergence herbicidal activity; settings: Rate 500 g/ha; evaluated 20 days later; 100=total damage to plant, 0=no damage to plant
Description: as §1

Lolium perenne (LOLPE) [5] = assay: Test Example 1, pre-emergence herbicidal activity; settings: Rate 500 g/ha; evaluated 20 days later; 100=total damage to plant, 0=no damage to plant
Description: as §1

Setaria faberi (SETFA) [6] = assay: Test Example 1, pre-emergence herbicidal activity; settings: Rate 500 g/ha; evaluated 20 days later; 100=total damage to plant, 0=no damage to plant
Description: as §1

[7] = tested on: Alopecurus myosuroides (ALOMY); assay: Test Example 1, post-emergence herbicidal activity; settings: Rate 500 g/ha; evaluated 15 days later; 100=total damage to plant, 0=no damage to plant
Description: as §1

Avena fatua (AVEFA) [8] = assay: Test Example 1, post-emergence herbicidal activity; settings: Rate 500 g/ha; evaluated 15 days later; 100=total damage to plant, 0=no damage to plant
Description: as §1

[9] = tested on: Digitaria sanguinalis (DIGSA); assay: Test Example 1, post-emergence herbicidal activity; settings: Rate 500 g/ha; evaluated 15 days later; 100=total damage to plant, 0=no damage to plant
Description: as §1

[10] = tested on: Echinochloa crus-galli (ECHCG); assay: Test Example 1, post-emergence herbicidal activity; settings: Rate 500 g/ha; evaluated 15 days later; 100=total damage to plant, 0=no damage to plant
Description: as §1

Lolium perenne (LOLPE) [11] = assay: Test Example 1, post-emergence herbicidal activity; settings: Rate 500 g/ha; evaluated 15 days later; 100=total damage to plant, 0=no damage to plant
Description: as §1

Setaria faberi (SETFA) [12] = assay: Test Example 1, post-emergence herbicidal activity; settings: Rate 500 g/ha; evaluated 15 days later; 100=total damage to plant, 0=no damage to plant
Description: as §1

[13] = tested on: Alopecurus myosuroides (ALOMY); assay: Test Example B, pre-emergence herbicidal activity; settings: Rate 250 g/ha; evaluated after 13 days; 100=total damage to plant, 0=no damage to plant
Description: (§2) Seeds of a variety of test species were sown in standard soil in pots. After cultivation for one day (pre-emergence) or after 8 days cultivation (post-emergence) under controlled conditions in a glasshouse (at 24/16° C., day/night; 14 hours light; 65% humidity), the plants were sprayed with an aqueous spray solution derived from the formulation of the technical active ingredient in acetone/water (50:50) solution containing 0.5% Tween 20 (polyoxyethelyene sorbitan monolaurate, CAS RN 9005-64-5). The test plants were then grown in a glasshouse under controlled conditions in a glasshouse (at 24/16° C., day/night; 14 hours light; 65% humidity) and watered twice daily. After 13 days for pre and post-emergence, the test was evaluated (100=total damage to plant; 0=no damage to plant). Alopecurus myosuroides (ALOMY), Avena fatua (AVEFA), Setaria faberi (SETFA), Echinochloa crus-galli (ECHCG), Solanum nigrum (SOLNI) and Amaranthus retroflexus (AMARE)

[14] = tested on: Amaranthus retroflexus (AMARE); assay: Test Example B, pre-emergence herbicidal activity; settings: Rate 250 g/ha; evaluated after 13 days; 100=total damage to plant, 0=no damage to plant
Description: as §2

Avena fatua (AVEFA) [15] = assay: Test Example B, pre-emergence herbicidal activity; settings: Rate 250 g/ha; evaluated after 13 days; 100=total damage to plant, 0=no damage to plant
Description: as §2

[16] = tested on: Echinochloa crus-galli (ECHCG); assay: Test Example B, pre-emergence herbicidal activity; settings: Rate 250 g/ha; evaluated after 13 days; 100=total damage to plant, 0=no damage to plant
Description: as §2

Setaria faberi (SETFA) [17] = assay: Test Example B, pre-emergence herbicidal activity; settings: Rate 250 g/ha; evaluated after 13 days; 100=total damage to plant, 0=no damage to plant
Description: as §2

Solanum nigrum (SOLNI) [18] = assay: Test Example B, pre-emergence herbicidal activity; settings: Rate 250 g/ha; evaluated after 13 days; 100=total damage to plant, 0=no damage to plant
Description: as §2

[19] = tested on: Alopecurus myosuroides (ALOMY); assay: Test Example B, post-emergence herbicidal activity; settings: Rate 250 g/ha; evaluated after 13 days; 100=total damage to plant, 0=no damage to plant
Description: as §2

[20] = tested on: Amaranthus retroflexus (AMARE); assay: Test Example B, post-emergence herbicidal activity; settings: Rate 250 g/ha; evaluated after 13 days; 100=total damage to plant, 0=no damage to plant
Description: as §2

Avena fatua (AVEFA) [21] = assay: Test Example B, post-emergence herbicidal activity; settings: Rate 250 g/ha; evaluated after 13 days; 100=total damage to plant, 0=no damage to plant
Description: as §2

[22] = tested on: Echinochloa crus-galli (ECHCG); assay: Test Example B, post-emergence herbicidal activity; settings: Rate 250 g/ha; evaluated after 13 days; 100=total damage to plant, 0=no damage to plant
Description: as §2

Setaria faberi (SETFA) [23] = assay: Test Example B, post-emergence herbicidal activity; settings: Rate 250 g/ha; evaluated after 13 days; 100=total damage to plant, 0=no damage to plant
Description: as §2

Solanum nigrum (SOLNI) [24] = assay: Test Example B, post-emergence herbicidal activity; settings: Rate 250 g/ha; evaluated after 13 days; 100=total damage to plant, 0=no damage to plant
Description: as §2

Compound	Pre-Emergence Activity ALOMY (damage to plant) [1]	Pre-Emergence Activity AVEFA (damage to plant) (Avena fatua (AVEFA) [2])	Pre-Emergence Activity DIGSA (damage to plant) [3]	Pre-Emergence Activity ECHCG (damage to plant) [4]	Pre-Emergence Activity LOLPE (damage to plant) (Lolium perenne (LOLPE) [5])	Pre-Emergence Activity SETFA (damage to plant) (Setaria faberi (SETFA) [6])	Post-Emergence Activity ALOMY (damage to plant) [7]	Post-Emergence Activity AVEFA (damage to plant) (Avena fatua (AVEFA) [8])	Post-Emergence Activity DIGSA (damage to plant) [9]	Post-Emergence Activity ECHCG (damage to plant) [10]	Post-Emergence Activity LOLPE (damage to plant) (Lolium perenne (LOLPE) [11])	Post-Emergence Activity SETFA (damage to plant) (Setaria faberi (SETFA) [12])	Pre-Emergence Activity ALOMY (damage to plant) [13]	Pre-Emergence Activity AMARE (damage to plant) [14]	Pre-Emergence Activity AVEFA (damage to plant) (Avena fatua (AVEFA) [15])	Pre-Emergence Activity ECHCG (damage to plant) [16]	Pre-Emergence Activity SETFA (damage to plant) (Setaria faberi (SETFA) [17])	Pre-Emergence Activity SOLNI (damage to plant) (Solanum nigrum (SOLNI) [18])	Post-Emergence Activity ALOMY (damage to plant) [19]	Post-Emergence Activity AMARE (damage to plant) [20]	also measured
CCc1ccc(-c2ccc(Cl)cc2Cl)cc1C1([N+](=O)[O-])C(=O)C(C)(C)OC(C)(C)C1=O [Compound A1, 4-(2′,4′-dichloro-4-ethylbiphen-3-yl)-2,2,6,6-tetramethyl-4-nitropyran-3,5-dione]	20	30	70	20	30	0	60	70	100	100	100	100	–	–	–	–	–	–	–	–	–
CCc1ccc(-c2ccc(Cl)cc2Cl)cc1C1(Cl)C(=O)C(C)(C)OC(C)(C)C1=O [Compound A2, 4-chloro-4-(2′,4′-dichloro-4-ethylbiphen-3-yl)-2,2,6,6-tetramethylpyran-3,5-dione]	0	50	90	90	70	90	60	80	100	100	100	100	–	–	–	–	–	–	–	–	–
Cc1ccc(-c2ccc(Cl)cc2)cc1C1(Cl)C(=O)COC(C)(C)C1=O (stereo not drawn) [Compound A3, 4-chloro-4-(4′-chloro-4-methylbiphenyl-3-yl)-2,2-dimethylpyran-3,5-dione]	–	–	–	–	–	–	–	–	–	–	–	–	0	0	0	50	0	0	0	0	Post-Emergence Activity AVEFA (damage to plant) (Avena fatua (AVEFA) [21]): 0; Post-Emergence Activity ECHCG (damage to plant) [22]: 80; Post-Emergence Activity SETFA (damage to plant) (Setaria faberi (SETFA) [23]): 80; Post-Emergence Activity SOLNI (damage to plant) (Solanum nigrum (SOLNI) [24]): 0
Cc1ccc(-c2ccc(Cl)cc2)cc1C1(Cl)C(=O)C(C)(C)OC(C)(C)C1=O [Compound A4, 4-Chloro-4-(4′-chloro-4-methylbiphenyl-3-yl)-2,2,6,6-tetramethyl-pyran-3,5-dione]	–	–	–	–	–	–	–	–	–	–	–	–	30	0	70	100	100	0	100	0	Post-Emergence Activity AVEFA (damage to plant) (Avena fatua (AVEFA) [21]): 90; Post-Emergence Activity ECHCG (damage to plant) [22]: 100; Post-Emergence Activity SETFA (damage to plant) (Setaria faberi (SETFA) [23]): 100; Post-Emergence Activity SOLNI (damage to plant) (Solanum nigrum (SOLNI) [24]): 0
